Assay [1] has as its target T1, GCN2 (Homo sapiens, UniProt Q9P2K8). Briefly: GCN2 enzyme assay (TR-FRET Lanthascreen, GFP-eIF2alpha phosphorylation). Particulars: 10 μM ATP, 80 nM GFP-eIF2a, 30 nM GCN2. The format is biochemical. Summed up: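 Kinase reaction with 10 μM ATP and 80 nM GFP-labelled eIF2alpha substrate at room temperature, stopped with EDTA. Phospho-eIF2alpha detected by TR-FRET between antibody and GFP-substrate, excitation at 340 nm.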
Target sequence in this assay (Q9P2K8 whole entry, species assumed): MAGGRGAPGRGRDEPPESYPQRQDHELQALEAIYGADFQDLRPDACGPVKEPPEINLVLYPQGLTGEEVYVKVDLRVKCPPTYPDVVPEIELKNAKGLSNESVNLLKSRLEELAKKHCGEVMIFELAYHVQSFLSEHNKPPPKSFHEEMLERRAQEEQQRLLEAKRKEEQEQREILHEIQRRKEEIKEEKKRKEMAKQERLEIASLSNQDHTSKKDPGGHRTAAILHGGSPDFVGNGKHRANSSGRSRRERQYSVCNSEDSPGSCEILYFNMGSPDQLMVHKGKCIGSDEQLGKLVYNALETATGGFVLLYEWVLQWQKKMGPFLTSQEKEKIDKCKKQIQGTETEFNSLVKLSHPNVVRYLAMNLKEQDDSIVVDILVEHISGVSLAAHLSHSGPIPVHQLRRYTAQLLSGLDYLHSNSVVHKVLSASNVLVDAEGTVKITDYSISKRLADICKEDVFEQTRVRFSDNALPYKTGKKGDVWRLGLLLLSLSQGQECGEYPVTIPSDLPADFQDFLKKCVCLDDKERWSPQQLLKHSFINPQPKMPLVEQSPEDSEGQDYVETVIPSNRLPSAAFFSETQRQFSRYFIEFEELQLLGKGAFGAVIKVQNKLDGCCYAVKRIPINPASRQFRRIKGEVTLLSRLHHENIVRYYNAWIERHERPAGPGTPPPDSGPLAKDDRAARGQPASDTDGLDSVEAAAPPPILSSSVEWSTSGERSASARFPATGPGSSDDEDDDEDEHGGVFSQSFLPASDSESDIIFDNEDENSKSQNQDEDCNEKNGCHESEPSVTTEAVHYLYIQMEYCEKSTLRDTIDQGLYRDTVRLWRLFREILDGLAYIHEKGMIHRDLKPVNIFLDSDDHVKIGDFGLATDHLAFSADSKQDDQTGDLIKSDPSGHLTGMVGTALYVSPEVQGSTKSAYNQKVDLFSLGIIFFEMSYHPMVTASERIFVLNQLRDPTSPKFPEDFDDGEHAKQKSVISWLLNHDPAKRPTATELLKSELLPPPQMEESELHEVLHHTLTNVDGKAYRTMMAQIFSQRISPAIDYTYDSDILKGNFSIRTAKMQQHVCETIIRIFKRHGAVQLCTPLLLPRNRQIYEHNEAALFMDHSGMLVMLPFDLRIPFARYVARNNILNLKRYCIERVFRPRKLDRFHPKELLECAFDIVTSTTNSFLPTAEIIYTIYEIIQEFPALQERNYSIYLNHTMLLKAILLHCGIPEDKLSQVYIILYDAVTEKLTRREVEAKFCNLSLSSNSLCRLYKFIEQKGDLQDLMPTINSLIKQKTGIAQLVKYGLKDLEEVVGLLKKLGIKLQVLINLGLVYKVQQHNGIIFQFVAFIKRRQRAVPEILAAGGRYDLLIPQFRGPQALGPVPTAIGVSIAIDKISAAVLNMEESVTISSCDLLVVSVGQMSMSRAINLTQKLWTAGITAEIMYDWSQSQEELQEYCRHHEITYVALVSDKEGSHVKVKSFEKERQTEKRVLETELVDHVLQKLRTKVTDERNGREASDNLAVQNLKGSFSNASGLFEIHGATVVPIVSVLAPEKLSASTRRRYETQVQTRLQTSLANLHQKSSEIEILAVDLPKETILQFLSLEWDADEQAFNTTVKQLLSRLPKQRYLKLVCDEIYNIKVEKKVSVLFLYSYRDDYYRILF

Another assay has as its target GSK3α(h) (Homo sapiens, UniProt P49840). The experiment in a line: GSK3α radiometric kinase assay (33P-ATP, phospho GS2 peptide). Particulars: read-out: IC50 GSK3α (enzyme assay). It counts as biochemical. A digest of the protocol: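 Human GSK3α incubated with 20 μM phospho-GS2 peptide in 8 mM MOPS pH 7,0, 10 mM Mg-acetate and [γ-33P]ATP (concentration as required), started with MgATP. After 40 minutes at room temperature, stopped with phosphoric acid; 33P incorporation measured by filtermat spotting and scintillation counting.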

The next assay addresses GSK3β(h) (Homo sapiens, UniProt P49841). Briefly: GSK3β radiometric kinase assay (33P-ATP, phospho GS2 peptide). It counts as biochemical. Particulars: read-out: IC50 GSK3β (enzyme assay). A digest of the protocol: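 Human GSK3β in 8 mM MOPS pH 7,0, 0,2 mM EDTA, 10 mM Mg-acetate with 20 μM phospho-GS2 peptide; the reaction was started with [γ-33P]MgATP at an unstated level. After 40 min at room temperature it was stopped with phosphoric acid, and the peptide was captured on P30 filtermat for scintillation counting.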

The target of assay [2] is T1, GCN2. The experiment in a line: Cellular assay of GCN2 activity (phospho-eIF2alpha immunocytochemistry after tryptophanol). It counts as cell-based. Also on record: endogenous in cells; host or cells: U2OS. Particulars: Human U2OS cells, 2 h compound, 600 μM tryptophanol 30 min. Summed up: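 Readout in human U2OS cells: compound pretreatment 2 h, then tryptophanol (600 μM final) for 30 min to trigger GCN2 signalling. Fixed, permeabilised cells quantified by immunocytochemistry for phosphorylation, normalised to DMSO controls as % effect; IC50 from concentration-response.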
Target sequence in this assay (Q9P2K8 whole entry): as the sequence (Q9P2K8 whole entry, species assumed) above

Chain of GSK3β(h) (P49841 whole entry): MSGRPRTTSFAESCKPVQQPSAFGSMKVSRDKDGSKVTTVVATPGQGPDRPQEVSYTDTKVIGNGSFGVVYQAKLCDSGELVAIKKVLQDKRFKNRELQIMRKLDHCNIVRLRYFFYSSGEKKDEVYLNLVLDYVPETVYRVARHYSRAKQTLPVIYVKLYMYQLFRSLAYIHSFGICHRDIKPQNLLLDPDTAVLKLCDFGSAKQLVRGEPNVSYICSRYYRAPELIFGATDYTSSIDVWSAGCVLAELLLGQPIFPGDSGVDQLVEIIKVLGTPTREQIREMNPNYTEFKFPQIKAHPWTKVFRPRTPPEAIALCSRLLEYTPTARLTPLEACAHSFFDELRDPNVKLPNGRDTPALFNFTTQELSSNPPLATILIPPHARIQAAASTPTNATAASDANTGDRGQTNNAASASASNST
Chain of GSK3α(h) (P49840 whole entry): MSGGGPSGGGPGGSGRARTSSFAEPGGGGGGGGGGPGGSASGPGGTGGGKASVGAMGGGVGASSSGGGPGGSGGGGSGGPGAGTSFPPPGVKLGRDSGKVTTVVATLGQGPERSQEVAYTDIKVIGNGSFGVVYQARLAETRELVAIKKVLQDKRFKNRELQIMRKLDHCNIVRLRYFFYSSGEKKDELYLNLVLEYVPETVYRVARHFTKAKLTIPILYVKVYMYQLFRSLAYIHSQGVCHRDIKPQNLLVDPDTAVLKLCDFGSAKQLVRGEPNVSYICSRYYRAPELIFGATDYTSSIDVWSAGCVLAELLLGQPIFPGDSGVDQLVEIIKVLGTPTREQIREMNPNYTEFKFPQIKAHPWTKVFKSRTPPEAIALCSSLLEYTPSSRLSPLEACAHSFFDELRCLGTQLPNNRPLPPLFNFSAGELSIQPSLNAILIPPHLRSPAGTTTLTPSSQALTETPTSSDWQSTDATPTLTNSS

Take `OCCOc1ccc(-n2nnc3cnc(N[C@@H]4CC[C@@H](O)C4)nc32)cc1` [A203, (1R,3R)-3-{3-[4-(2-hydroxy-ethoxy)-phenyl]-3H-[1,2,3]triazolo[4,5-d]pyrimidin-5-ylamino}-cyclopentanol]: the IC50 was less than 1000 nM against GCN2 [1], less than 1000 nM at GSK3α(h), less than 1000 nM at GSK3β(h) and 1 to 5 µM against GCN2 [2].

Regarding `NC(=O)[C@@H]1CC[C@@H](Nc2ncc3nnn(-c4ccc(OCCO)cc4)c3n2)C1` [A153, (1R,3R)-3-{3-[4-(2-hydroxy-ethoxy)-phenyl]-3H-[1,2,3]triazolo[4,5-d]pyrimidin-5-ylamino}-cyclopentanecarboxylic acid amide], the IC50 was less than 1000 nM on GCN2 [1], less than 1000 nM on GSK3α(h), less than 1000 nM at GSK3β(h) and 5 to 10 µM against GCN2 [2].

As for `CCOc1ccc(-n2nnc3cnc(N[C@@H]4CC[C@@H](C(N)=O)C4)nc32)cc1F` [A157, (1R,3R)-3-[3-(4-ethoxy-3-fluoro-phenyl)-3H-[1,2,3]triazolo[4,5-d]pyrimidin-5-ylamino]-cyclopentanecarboxylic acid amide], the IC50 is less than 1000 nM at GCN2 [1], less than 1000 nM on GSK3α(h), less than 1000 nM at GSK3β(h) and 1 to 5 µM against GCN2 [2].

Consider `COCCn1cc(-c2ccc(-n3nnc4cnc(N[C@@H]5CC[C@@H](C(N)=O)C5)nc43)cc2)cn1` [A218, (1R,3R)-3-(3-{4-[1-(2-methoxy-ethyl)-1H-pyrazol-4-yl]-phenyl}-3H-[1,2,3]triazolo[4,5-d]pyrimidin-5-ylamino)-cyclopentanecarboxylic acid amide], for which the IC50 is less than 1000 nM against GCN2 [1], less than 1000 nM at GSK3α(h), less than 1000 nM on GSK3β(h) and less than 1 µM on GCN2 [2].

In the case of `CC(C)Oc1ccc(-n2nnc3cnc(N[C@@H]4CC[C@@H](O)C4)nc32)cc1` (relative stereo) [A210, (trans)-3-[3-(4-isopropoxy-phenyl)-3H-[1,2,3]triazolo[4,5-d]pyrimidin-5-ylamino]-cyclopentanol], the IC50 was less than 1000 nM on GCN2 [1], less than 1000 nM on GSK3α(h), less than 1000 nM on GSK3β(h) and 5 to 10 µM on GCN2 [2].

As to `NC(=O)[C@@H]1CC[C@@H](Nc2ncc3nnn(-c4ccc(OC[C@H](O)C(F)(F)F)cc4)c3n2)C1` [A151, (1R,3R)-3-{3-[4-((S)-3,3,3-trifluoro-2-hydroxy-propoxy)-phenyl]-3H-[1,2,3]triazolo[4,5-d]pyrimidin-5-ylamino}-cyclopentanecarboxylic acid amide], the IC50 on GCN2 [1] is less than 1000 nM; on GSK3α(h), less than 1000 nM; at GSK3β(h), less than 1000 nM; on GCN2 [2] it was 1 to 5 µM.

On to `COCCn1cc(-c2ccc(-n3nnc4cnc(N[C@@H]5CC[C@@H](C(N)=O)C5)nc43)cn2)cn1` [A224, (1R,3R)-3-(3-{6-[1-(2-methoxy-ethyl)-1H-pyrazol-4-yl]-pyridin-3-yl}-3H-[1,2,3]triazolo[4,5-d]pyrimidin-5-ylamino)-cyclopentanecarboxylic acid amide], for which the half-maximal inhibitory concentration (IC50) against GCN2 [1] is less than 1000 nM; at GSK3α(h), less than 1000 nM; on GSK3β(h), less than 1000 nM; against GCN2 [2], 5 to 10 µM.

As for `CCOc1ccc(-n2nnc3cnc(N[C@@H]4CC[C@@H](C(=O)NCCC(C)(C)O)C4)nc32)cc1` [A240, (1R,3R)-3-[3-(4-ethoxy-phenyl)-3H-[1,2,3]triazolo[4,5-d]pyrimidin-5-ylamino]-cyclopentanecarboxylic acid (3-hydroxy-3-methyl-butyl)-amide], the IC50 against GCN2 [1] was less than 1000 nM; at GSK3α(h), less than 1000 nM; at GSK3β(h), less than 1000 nM; against GCN2 [2] it was 5 to 10 µM.

As for `COc1ccc(-n2nnc3cnc(N[C@@H]4CC[C@H](CN)C4)nc32)cc1` [A122, ((1R,3S)-3-aminomethyl-cyclopentyl)-[3-(4-methoxy-phenyl)-3H-[1,2,3]triazolo[4,5-d]pyrimidin-5-yl]-amine], the IC50 on GCN2 [1] is less than 1000 nM; on GSK3α(h), less than 1000 nM; on GSK3β(h), 1000 to 5000 nM; at GCN2 [2], 1 to 5 µM.

As for `COCCOc1ccc(-n2nnc3cnc(N[C@@H]4CC[C@@H](C#N)C4)nc32)cc1` [A274, (1R,3R)-3-{3-[4-(2-methoxy-ethoxy)-phenyl]-3H-[1,2,3]triazolo[4,5-d]pyrimidin-5-ylamino}-cyclopentanecarbonitrile], the IC50 at GCN2 [1] was less than 1000 nM; at GSK3α(h), less than 1000 nM; at GSK3β(h), less than 1000 nM; at GCN2 [2], 1 to 5 µM.

On to `Cc1ccc2cc(-n3nnc4cnc(N[C@H]5CC[C@H](C(N)=O)C5)nc43)ccc2n1` [A193, (1S,3S)-3-[3-(2-methyl-quinolin-6-yl)-3H-[1,2,3]triazolo[4,5-d]pyrimidin-5-ylamino]-cyclopentanecarboxylic acid amide], for which the half-maximal inhibitory concentration (IC50) at GCN2 [1] was less than 1000 nM; on GSK3α(h), less than 1000 nM; on GSK3β(h) it was less than 1000 nM; against GCN2 [2] it was 1 to 5 µM.

`NC(=O)[C@@H]1CC[C@@H](Nc2ncc3nnn(-c4ccc(OCCN5CCOCC5)cc4)c3n2)C1` [A277, (1R,3R)-3-{3-[4-(2-morpholin-4-yl-ethoxy)-phenyl]-3H-[1,2,3]triazolo[4,5-d]pyrimidin-5-ylamino}-cyclopentanecarboxylic acid amide]: the IC50 at GCN2 [1] was less than 1000 nM; on GSK3α(h) it was less than 1000 nM; at GSK3β(h), less than 1000 nM; against GCN2 [2] it was 5 to 10 µM.

Take `CCOc1ccc(-n2nnc3cnc(N[C@@H]4CC[C@@H](C(N)=O)C4)nc32)cc1` [A150, (1R,3R)-3-[3-(4-ethoxy-phenyl)-3H-[1,2,3]triazolo[4,5-d]pyrimidin-5-ylamino]-cyclopentanecarboxylic acid amide]: the IC50 is less than 1000 nM against GCN2 [1], less than 1000 nM at GSK3α(h), less than 1000 nM on GSK3β(h) and 1 to 5 µM against GCN2 [2].

`COCCn1cc(-c2ccc(-n3nnc4cnc(N[C@@H]5CC[C@@H](C(=O)NCC6CCN(C)CC6)C5)nc43)cc2)cn1` [A235, (1R,3R)-3-(3-{4-[1-(2-methoxy-ethyl)-1H-pyrazol-4-yl]-phenyl}-3H-[1,2,3]triazolo[4,5-d]pyrimidin-5-ylamino)-cyclopentanecarboxylic acid (1-methyl-piperidin-4-ylmethyl)-amide]: the IC50 on GCN2 [1] was less than 1000 nM; at GSK3α(h) it was less than 1000 nM; on GSK3β(h), less than 1000 nM; at GCN2 [2], 1 to 5 µM.

For `CCOCCn1cc(-c2ccc(-n3nnc4cnc(N[C@@H]5CC[C@@H](C(=O)NCCO)C5)nc43)cc2)cn1` [A226, (1R,3R)-3-(3-{4-[1-(2-ethoxy-ethyl)-1H-pyrazol-4-yl]-phenyl}-3H-[1,2,3]triazolo[4,5-d]pyrimidin-5-ylamino)-cyclopentanecarboxylic acid (2-hydroxy-ethyl)-amide], the IC50 at GCN2 [1] was less than 1000 nM; at GSK3α(h) it was less than 1000 nM; at GSK3β(h) it was less than 1000 nM; on GCN2 [2], 1 to 5 µM.

Consider `CCOCCn1cc(-c2ccc(-n3nnc4cnc(N[C@@H]5CC[C@@H](N)C5)nc43)cc2)cn1` [A125, (1R,3R)—N-(3-{4-[1-(2-3thoxy-ethyl)-1H-pyrazol-4-yl]-phenyl}-3H-[1,2,3]triazolo[4,5-d]pyrimidin-5-yl)-cyclopentane-1,3-diamine], for which the IC50 was less than 1000 nM on GCN2 [1], less than 1000 nM on GSK3α(h), 1000 to 5000 nM at GSK3β(h) and less than 1 µM at GCN2 [2].

Consider `CC(C)Oc1ccc(-n2nnc3cnc(N[C@@H]4CC[C@@H](C(N)=O)C4)nc32)cc1` [A164, (1R,3R)-3-[3-(4-isopropoxy-phenyl)-3H-[1,2,3]triazolo[4,5-d]pyrimidin-5-ylamino]-cyclopentanecarboxylic acid amide], for which the IC50 is less than 1000 nM at GCN2 [1], less than 1000 nM at GSK3α(h), less than 1000 nM at GSK3β(h) and 5 to 10 µM against GCN2 [2].

For the molecule `COCCNC(=O)[C@@H]1CC[C@@H](Nc2ncc3nnn(-c4ccc5nc(C)ccc5c4)c3n2)C1` [A246, (1R,3R)-3-[3-(2-methyl-quinolin-6-yl)-3H-[1,2,3]triazolo[4,5-d]pyrimidin-5-ylamino]-cyclopentanecarboxylic acid (2-methoxy-ethyl)-amide], the IC50 at GCN2 [1] is less than 1000 nM; at GSK3α(h) it was less than 1000 nM; at GSK3β(h), less than 1000 nM; against GCN2 [2], 1 to 5 µM.

As to `Cc1ccc2cc(-n3nnc4cnc(N[C@@H]5CC[C@@H](C(=O)NCCN6CCN(C)CC6)C5)nc43)ccc2n1` [A250, (1R,3R)-3-[3-(2-methyl-quinolin-6-yl)-3H-[1,2,3]triazolo[4,5-d]pyrimidin-5-ylamino]-cyclopentanecarboxylic acid [2-(4-methyl-piperazin-1-yl)-ethyl]-amide], the IC50 is less than 1000 nM at GCN2 [1], less than 1000 nM at GSK3α(h), less than 1000 nM on GSK3β(h) and 1 to 5 µM against GCN2 [2].

For the molecule `Cn1cc(-c2ccc(-n3nnc4cnc(N[C@@H]5CC[C@H](N)C5)nc43)cc2)cn1` [A118, (1S,3R)-N3-{3-[4-(1-methyl-1H-pyrazol-4-yl)-phenyl]-3H-[1,2,3]triazolo[4,5-d]pyrimidin-5-yl}-cyclopentane-1,3-diamine], the half-inhibitory concentration (IC50) was less than 1000 nM on GCN2 [1], less than 1000 nM at GSK3α(h), less than 1000 nM at GSK3β(h) and 1 to 5 µM against GCN2 [2].

The values above are taken from patent US9855268B2, “Triazolo[4,5-d]pyrimidine derivatives” (Merck Patent GmbH, priority 2013, dated 2018).
